In US20100104521A1, “COSMETIC AND/OR PHARMACEUTICAL COMPOSITION COMPRISING AS AN ACTIVE PRINCIPLE AT LEAST ONE PEPTIDE AND USE OF THIS PEPTIDE” (SOCIETE D'EXTRACTION DES PRINCIPES ACTIFS SA (VINCIENCE), priority 2006, published 2010):

Tested on: melanocytes of human skin biopsies
Experiment: Ex vivo study of the effect of the peptide on the synthesis of melanin (human skin biopsies, Fontana-Masson staining)
Format: cell-based
Conditions: human skin biopsies 6 mm in ex vivo culture, two applications daily, peptide at 1% starting with a 50-ppm solution, 48 hours
Experimental: The aim of this ex vivo study is to highlight the increase in melanization produced by the peptides according to the invention.
Protocol: Biopsies of human skin 6 mm in diameter are held in an ex vivo culture in the presence of a specific medium (1 g/L DMEM, Ham's F-12, SVF, and antibiotics) on inserts deposited on 6-well plates. […] The duration of the treatment is 48 hours. The biopsies are subsequently fixed in 9% formaldehyde and NaCl (150 mM) for 10 hours and then enclosed in paraffin. Thin-sections of the skin 3 μm thick are then made, and the melanin is specifically stained by the Fontana-Masson technique. […] Conclusions: The peptide of sequence of SEQ ID No. 4 induces a strong increase in the synthesis of melanin by the melanocytes and stimulates the entire process of melanin distribution in the epidermis.

## Trp-Lys-Leu-Asp (WKLD) [SEQ ID No. 4]
Fontana-Masson staining
  location / distribution of melanin in the epidermis: located in the basal layer but is also transported into the supra-basal layers
Versus biopsies without application
  intensity of melanin coloration of skin thin-sections (Fontana-Masson technique): coloration of clearly increased intensity
